Data as given in PMC11407758, “Integrated stress response (ISR) activation and apoptosis through HRI kinase by PG3 and other p53 pathway-restoring cancer therapeutics” (Oncotarget, 2024).

What was measured:
[1] = system: GCN2, PKR, eIF2α, ATF4, CHOP in HT29 cells; test: Western blot, ISR kinases / eIF2α / ATF4 / CHOP; format: cell-based, human; conditions: pre-treatment 2 hours, then ONC201 or PG3 for 24 hour
Experimental: Figure 7 PG3 induces upregulation of ATF4 through ISR via HRI. (A) HT29 cells were treated with PG3, GSK2606414, TG and ONC201 respectively, or co-treatment with PG3/GSK2606414, PG3/TG, and PG3/ONC201 for 15 h. (B) MEF, MEF^PERK−/− and MEF^GCN2−/− cells were treated with PG3 and ONC201 for 16 hours. (C) HT29 cells were transfected with siControl, siPKR, siHRI and siPKR/siHRI for 24 hours and then treated with PG3 for 16 hours. (D) HCT116 p53^−/− cells were transfected with siControl and siHRI for 24 hours and then treated with PG3 for 16 hours. (E) HCT116 p53^−/− cells were treated with PG3 and ONC201 for indicated times. (F) PANC1-sgCtrl, -sgHRI and -sgPKR cell lines were treated with PG3 and imipridones (ONC201, ONC206 and ONC212) for 16 hours. Western blot was performed using indicated antibodies. (G) Proposed model of PG3-induced cell apoptosis through HRI/ATF4/PUMA axis. Abbreviation: L.E.: Long exposure.
(§1) After treatment, protein lysates were collected for Western blot analysis. A total of 15 μg of protein was used for SDS-PAGE. After primary and secondary antibody incubations, the signal was detected by a chemiluminescence detection kit, imaged by Syngene (Imgen Technologies). Antibodies for NAG-1 (GDF15) and P53 were from Santa Cruz Biotechnology; for caspase 8, cleaved caspase 8, caspase 9, caspase 3, cleavage PARP, eIF2α, p-eIF2α (Ser51), CHOP, ATF4, DR5, and PUMA were from Cell Signaling Technology. Noxa and p21 were from Calbiochem. Ran was from BD Biosciences.
Supplementary Figure 2: ROS and NO are not responsible for PG3-induced HRI activation. (A, B) cells were pre-treated
with ZnPP, L-NMMA, SA and NAC for 2 hours respectively, and then ONC201 or PG3 was added to the medium for 24 hour treatment.
Western blot was performed using indicated antibodies.
(1 picture or pasted object on this page, not shown here)

HT29 (R273H) = test: Cell viability assay (CellTiterGlo), HT29; format: cell-based, human; conditions: Homo sapiens, HT-29; 72 h, CellTiterGlo
Experimental: (§2) Figure 1 PG3 inhibits cell proliferation and growth in a p53-indepent manner. (A–E) Cell viability assay, dose response curves and IC50 value measurements in a panel of cancer cell lines and normal cells. Cells were treated with different concentrations of PG3, PG3-Oc (Oc), obatoclax (Ob), prodigiosin (P) or DMSO for 72 h. Luciferase activity was imaged by the IVIS Imaging System after treatment. Cell viability data were normalized to those of DMSO treatment control in each cell line and data analyses were performed using PRISM4 software. IC50 data are expressed as the mean ±SD (normal; n = 3).
as §2, with “2 p53-dependent inhibition of” for “1 PG3 inhibits”, “is only observed at specific concentrations. (A–J)” for “and growth in a p53-indepent manner. (A–E)”, “ZMC1, CP-313908, APR-246, Ellipticine, Nutalin-3a” for “PG3, PG3-Oc (Oc), obatoclax (Ob), prodigiosin (P)”
(§3) Cells were seeded in 96-well plates (6 × 10^3 cells/well). Cells were treated with different concentrations of compounds or dimethyl sulfoxide (DMSO) as a control for 72 hours. The cell viability was assessed by CellTiterGlo bioluminescent cell viability assay (Promega), following the manufacturer’s protocol. Bioluminescence imaging was measured using the IVIS imager. The percentage of cell viability (mean ± SEM) at each dose was calculated against the respective DMSO control. The IC50 values were determined from the sigmoidal dose-response curves using GraphPad Prism.

TOV-112D (R175H) = test: Cell viability assay (CellTiterGlo), TOV-112D; format: cell-based, human; conditions: Homo sapiens, TOV112D; 72 h, CellTiterGlo; read-out: IC50 values, TOV-1120 (R175H) (converted)
Experimental: as §2
as §2, with “2 p53-dependent inhibition of” for “1 PG3 inhibits”, “is only observed at specific concentrations. (A–J)” for “and growth in a p53-indepent manner. (A–E)”, “ZMC1, CP-313908, APR-246, Ellipticine, Nutalin-3a” for “PG3, PG3-Oc (Oc), obatoclax (Ob), prodigiosin (P)”
as §3

HCT116 (P53−/−) = test: Cell viability assay (CellTiterGlo), HCT116 p53-/-; format: cell-based, human; conditions: Homo sapiens, HCT-116; 72 h, CellTiterGlo
Experimental: as §2
as §2, with “2 p53-dependent inhibition of” for “1 PG3 inhibits”, “is only observed at specific concentrations. (A–J)” for “and growth in a p53-indepent manner. (A–E)”, “ZMC1, CP-313908, APR-246, Ellipticine, Nutalin-3a” for “PG3, PG3-Oc (Oc), obatoclax (Ob), prodigiosin (P)”
as §3

HCT116 (WT) = test: Cell viability assay (CellTiterGlo), HCT116 WT; format: cell-based, human
Experimental: as §2
as §2, with “2 p53-dependent inhibition of” for “1 PG3 inhibits”, “is only observed at specific concentrations. (A–J)” for “and growth in a p53-indepent manner. (A–E)”, “ZMC1, CP-313908, APR-246, Ellipticine, Nutalin-3a” for “PG3, PG3-Oc (Oc), obatoclax (Ob), prodigiosin (P)”
as §3

HCT116 (R175H) = test: Cell viability assay (CellTiterGlo), HCT116 R175H; format: cell-based, human; conditions: Homo sapiens, HCT-116; 72 h, CellTiterGlo
Experimental: as §2
as §2, with “2 p53-dependent inhibition of” for “1 PG3 inhibits”, “is only observed at specific concentrations. (A–J)” for “and growth in a p53-indepent manner. (A–E)”, “ZMC1, CP-313908, APR-246, Ellipticine, Nutalin-3a” for “PG3, PG3-Oc (Oc), obatoclax (Ob), prodigiosin (P)”
as §3

[2] = system: HFF-1 (human foreskin fibroblast cell with wild-type p53); test: Cell viability assay (CellTiterGlo), HFF-1 normal cells; format: cell-based; conditions: Homo sapiens, HFF-1; 72 h, CellTiterGlo, normal cells; read-out: IC50 values, HFF-l (WT)
Experimental: as §2
as §2, with “2 p53-dependent inhibition of” for “1 PG3 inhibits”, “is only observed at specific concentrations. (A–J)” for “and growth in a p53-indepent manner. (A–E)”, “ZMC1, CP-313908, APR-246, Ellipticine, Nutalin-3a” for “PG3, PG3-Oc (Oc), obatoclax (Ob), prodigiosin (P)”
as §3

[3] = system: HT29, TOV-112D, isogenic HCT116 cell lines, HFF-1 and MRC5; test: Cell viability assay, panel of cancer cell lines and normal cells (results in words); format: cell-based, human
Experimental: as §2, with “2 p53-dependent inhibition of” for “1 PG3 inhibits”, “is only observed at specific concentrations. (A–J)” for “and growth in a p53-indepent manner. (A–E)”, “ZMC1, CP-313908, APR-246, Ellipticine, Nutalin-3a” for “PG3, PG3-Oc (Oc), obatoclax (Ob), prodigiosin (P)”
as §3

[4] = system: SW480 cells carrying a p53-responsive luciferase reporter; test: p53-responsive reporter assay; format: cell-based, human; conditions: 10 μM, 6 hour and 15 hour time points
Experimental: SW480 cells carrying a p53-responsive luciferase reporter were used for assay of functional restoration of mutant p53. Cells were seeded in 96-well plates (5 × 10^4 cells/well) and were treated with compounds indicated for 6 and 15 h, respectively. Then, D-luciferin was added to each well with final concentration 100 μg/mL, and cells were imaged by using an IVIS Imaging System to detect luciferase activity.
p53-mutant SW480 human colon cancer cells, stably expressing a p53-responsive luciferase reporter, were used to assay functional restoration p53 pathway-dependent transcription in mutant p53-expressing tumor cells. Cells were seeded in 96-well plates (5 × 10^4 cells/well) and were treated with small-molecule compounds for 6 and 15 h, respectively. Then, D-luciferin was added to each well at a final concentration of 100 μg/mL, and cells were imaged by using an IVIS Imaging System (Xenogen) to detect luciferase activity.

ATF4 = test: Western blot, ATF4 induction; format: cell-based, human; conditions: five cancer cell lines, 24 h
Experimental: (§4) Figure 4 Activation of ATF4 and up-regulation of typical p53 target genes. (A–E) Western blot analysis of p53 protein levels and upregulation of ATF4, PUMA, DR5 and p21. Cells were treated for 24 h with indicated compounds, concentrations and cell lines. Abbreviations: S.E.: Short exposure; L.E.: Long exposure.
as §1

p53 protein = test: Western blot, p53 protein levels; format: cell-based, human
Experimental: Cells were treated for 24 h with indicated compounds, concentrations and cell lines. Abbreviations: S.E.: Short exposure; L.E.: Long exposure.
as §1

DR5 = test: Western blot, DR5 induction; format: cell-based, human
Experimental: as §4, §1

PUMA = test: Western blot, PUMA induction; format: cell-based, human
Experimental: as §4, §1

p21 = test: Western blot, p21 induction; format: cell-based, human
Experimental: as §4, §1

**Q.** CC(=O)N[C@@H](CS)C(=O)O [NAC, N-acetylcysteine] was tested. Which “effect on PG3- or ONC201-induced upregulation of ATF4” value [1] did it give?
**A.** do not attenuate or block

**Q.** Which “effect on PG3- or ONC201-induced upregulation of ATF4” value [1] does the source give for C=CC1=C(C)c2cc3[n-]c(cc4nc(cc5[n-]c(cc1n2)c(C)c5C=C)C(C)=C4CCC(=O)O)c(CCC(=O)O)c3C.[Zn+2] [ZnPP, Zinc protoporphyrin] here?
**A.** do not attenuate or block

**Q.** What does the source list for Cc1c2ccncc2c(C)c2c1[nH]c1ccccc12 [Ellipticine]?
**A.** IC50 (HT29 (R273H)): 713 nM; IC50 (TOV-112D (R175H)): 19300 nM; IC50 (HCT116 (P53−/−)): 2420 nM; IC50 (HCT116 (WT); Homo sapiens, HCT-116, 72 h, CellTiterGlo): 999 nM; selective toxicity among isogenic HCT116 cell lines (HCT116 (WT); isogenic HCT116 cell lines, 1.11 μM): selective toxicity towards the p53-wild-type cell line; IC50 (HCT116 (R175H)): 1790 nM; IC50 [2]: 6070 nM; toxicity to normal cells ([3]; HFF-1 and MRC5, 0.04 to 3.33 μM): no significant toxicity; inhibition of proliferation ([3]; HT29 and TOV-112D, 0.04 to 3.33 μM): selectively inhibits the proliferation; p53-responsive reporter activity [4]: activates the reporter activity; upregulation of ATF4 (ATF4): do not upregulate ATF4; wild-type p53 protein level (p53 protein; HCT116, 24 h): potently stabilizes; endogenous mutant p53 R273H protein level (p53 protein; HT29, 24 h): stabilized; endogenous mutant p53 R175H protein level (p53 protein; TOV-112D, 24 h): mildly downregulates; exogenous mutant p53 R175H protein level (p53 protein; engineered HCT116-R175H cells, 24 h): upregulates; upregulation of DR5 (DR5; HCT116 (p53 wild-type), 24 h): slightly upregulates the short isomer of DR5; upregulation of DR5 (DR5; HT29, 24 h): slightly upregulates the short isomer of DR5; upregulation of PUMA (PUMA; HCT116 (p53 wild-type), 24 h): mildly upregulates PUMA; upregulation of PUMA (PUMA; HT29, 24 h): does not upregulate PUMA; upregulation of PUMA (PUMA; TOV-112D, 24 h): does not upregulate PUMA; upregulation of p21 (p21; HCT116 (p53 wild-type), 24 h): significantly upregulates p21; upregulation of p21 (p21; HCT116 p53-R175H, 24 h): mildly upregulates p21; upregulation of p21 (p21; HCT116 p53–/–, 24 h): slightly upregulates p21; upregulation of p21 (p21; HT29, 24 h): slightly upregulates p21; upregulation of p21 (p21; TOV-112D, 24 h): mildly upregulates p21
